The numbers were not newly measured in patent US11654127B2, “Composition for use in the prevention and/or treatment of Oncologic Treatment Induced Orogastrointestinal Mucositis” (Mucosa Innovations, S.L., priority 2017, dated 2023), which cites them from elsewhere.

This series concerns OTIOM. The conditions noted are these: saliva stimulant.

For `CC[C@@H]1C(=O)OC[C@@H]1Cc1cncn1C` [pilocarpine], the “effect in preventing or treating OTIOM” value was “no beneficial effect”.
